Experimental data: ChEMBL document CHEMBL5241115, “Postmodification of voxelotor (GBT 440) via [Rh]-catalyzed cross dehydrogenative coupling with olefins” (2022)

Test: Induction of oxygen binding efficiency of haemoglobin from human sickled red blood cells at 100 uM measured every 10 mins for 180 mins by spectral scan analysis relative to control
Type: functional, Erythrocyte
Settings: 3 h
With `Cc1ccc(/C=C/c2cnn(C(C)C)c2-c2ncccc2COc2cccc(O)c2C=O)cc1` the Activity was 78.9%.
Work on `COc1ccc(/C=C/c2cnn(C(C)C)c2-c2ncccc2COc2cccc(O)c2C=O)cc1` yielded an Activity of 78.6%.
For `COc1ccc(/C=C/c2cnn(C(C)C)c2-c2ncccc2COc2cccc(O)c2C=O)c(OC)c1`, the Activity was 81.1%.
`CCCCC(=O)/C=C/c1cnn(C(C)C)c1-c1ncccc1COc1cccc(O)c1C=O` showed an Activity of 82%.
For `CC(C)n1nccc1-c1ncccc1COc1cccc(O)c1C=O` [VOXELOTOR], the Activity was 100%.
